Data on 8 compounds can be found in US20260144788A1, “COMPOUND FOR SHP2 PROTEIN DEGRADATION AND MEDICAL USES THEREOF” (UBIX THERAPEUTICS, INC., priority 2022, published 2026).

This assay has as its target T1, SHP2 protein (Homo sapiens, UniProt Q06124).
T1 sequence (Q06124 1-593): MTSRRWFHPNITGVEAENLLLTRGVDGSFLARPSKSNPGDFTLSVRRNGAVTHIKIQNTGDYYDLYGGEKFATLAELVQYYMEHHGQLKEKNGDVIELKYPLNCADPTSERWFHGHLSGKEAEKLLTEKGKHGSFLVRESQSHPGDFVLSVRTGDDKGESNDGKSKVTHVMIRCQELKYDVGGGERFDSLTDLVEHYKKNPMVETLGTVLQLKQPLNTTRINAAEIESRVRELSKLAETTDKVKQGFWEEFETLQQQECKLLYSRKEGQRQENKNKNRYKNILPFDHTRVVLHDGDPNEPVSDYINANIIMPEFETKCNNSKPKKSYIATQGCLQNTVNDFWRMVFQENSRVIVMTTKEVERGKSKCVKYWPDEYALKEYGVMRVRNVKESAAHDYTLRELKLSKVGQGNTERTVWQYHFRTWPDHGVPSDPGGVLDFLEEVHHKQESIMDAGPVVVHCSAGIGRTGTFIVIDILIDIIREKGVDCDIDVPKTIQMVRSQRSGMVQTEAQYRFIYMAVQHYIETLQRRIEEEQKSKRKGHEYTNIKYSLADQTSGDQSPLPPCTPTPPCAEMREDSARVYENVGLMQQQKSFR
Put plainly: Measurement of SHP2 protein degradation in NCI-H358 cells (western blotting). Format: cell-based. Also noted: endogenous in cells; host or cells: NCI-H358. The following applies: harvested after 24 hours. Here is the method:
H358 cells were treated with the synthesized Example compounds, and the amount of SHP2 protein present in the cells was measured using western blotting detection. The protocol for the experiment using H358 cells is as follows.
[Culture]H358 cells were resuspended in RPMI1640 with 25 mM HEPES (Hyclone, SH30255.01), 10% FBS (Hyclone, SV30207.02), 1% Penicillin-streptomycin (Welgene, LS 202-02) media, seeded at 3×10^5/mL in 12-well plates (1 mL each), and cultured for 24 hours.
[Compound treatment] Before compound treatment, the media was changed to 1 mL media, and then the 12-well plate was treated as follows. The 10 mM stock dissolved in DMSO was serially diluted 1/100 or 1/10 with the media, and the compound was treated to the cells at a final concentration of 0.001, 0.01, and 0.1 μM, and harvested after 24 hours. For the negative control group, DMSO diluted 1/1000 in the media was added (1 μL DMSO+999 μL media).
[Harvest]24 hours after compound treatment, each well was scraped with a cell lifter (SPL, 90040), pipetted with a 1 mL pipette, collected in a 1.5 mL microtube, and centrifuged (500 g, 5 min, 4° C.). The supernatant was removed, washed with PBS, and centrifuged again (500 g, 5 min, 4° C.). Afterwards, the supernatant was removed to prepare a pellet.
[Cell lysis and sample preparation] Lysis buffer was prepared as follows. RIPA buffer (Biosesang, RC2038-050-00)+0.5 mM PMSF (SIGMA, P7626)+1× Protease/Phosphatase Inhibitor (Cell signaling, 5872S) were added at 30 μL per tube, vortexed, and incubated on ice for 30 minutes. Afterwards, sonication was performed (10 sec pulse, 30 sec rest, 5 cycles, 70% amplification) and centrifugation was performed (15,000 g, 15 min, 4° C.), and only the supernatant was transferred to a microtube. A 96-well plate was diluted to 1/4 with 7.5 μL of RIPA buffer and 2.5 μL of sample, and 200 μL each was added after mixing A and B of the BCA Protein Assay Kit (iNtRON, 21071) in a ratio of 50:1. The plate was incubated at 37° C. for 30 minutes and left at room temperature for 10 minutes. After shaking for 10 seconds with a SYNERGY H1 microplate reader from BioTek, the absorbance was measured at 562 nm. The protein was quantified using the measured value to make a sample, which was then incubated at 70° C. for 10 minutes. The sample buffer used here was a mixture of NuPAGE or Bolt 4× sample buffer (Invitrogen) and each 10× sample reducing agent depending on the gel to be used, and RIPA buffer was used for protein dilution.
[Western blotting detection] Equal amounts of samples were loaded onto NuPAGE or Bolt Bis-tris 4-12% gradient gel and run (200 V, 35 min). This was transferred to […] NC membrane using Trans-blot Turbo (BIO-RAD) (1.3 A constant, 25 V limit, 15 min), and blocked with 5% skim milk/0.2% TBST for 45 min at room temperature. Anti-SHPTP2 Mouse (1:1,000 in 5% skim milk/0.2% TBST, size: 70 kDa, Santa cruz sc-7384) and Anti-GAPDH Rabbit (1:2,000 in 5% skim milk or 5% BSA/0.2% TBST, size: 37 kDa, CST #2118) were added and incubated overnight at 4° C. After washing three times with 0.2% TBST washing buffer for 5 minutes each, secondary antibodies Anti-Mouse IgG (1:5,000 in 5% skim milk/0.2% TBST, CST) and IRDye® 680RD Goat anti-Rabbit IgG Secondary Antibody (1:10,000 in 5% skim milk/0.2% TBST, LI-COR 926-68071) were added, and incubated on a rocker at room temperature for 45 minutes. The resultants were washed five times with 0.2% TBST washing buffer for 5 minutes each, and detected using LI-COR's Odyssey. GAPDH was detected with a 700 nm channel, and SHPTP2 was detected using SuperSignal West Pico PLUS Chemiluminescent Substrate.

Regarding `Cc1ncsc1-c1ccc(CNC(=O)[C@@H]2C[C@@H](O)CN2C(=O)[C@@H](NC(=O)C2(F)CC2)C(C)(C)C)c(OC2CCN(C(=O)C3CN(c4nccc(Sc5cnc(N6CCC(C)(CN)CC6)cn5)c4Cl)C3)CC2)c1` [Example 63, (2S,4R)—N-(2-((1-(1-(4-((5-(4-(aminomethyl)-4-methylpiperidin-1-yl)pyrazin-2-yl)thio)-3-chloropyridin-2-yl)azetidine-3-carbonyl)piperidin-4-yl)oxy)-4-(4-methylthiazol-5-yl)benzyl)-1-((S)-2-(1-fluorocyclopropane-1-carboxamido)-3,3-dimethylbutanoyl)-4-hydroxypyrrolidine-2-carboxamide], the SHP2% degradation (0.01 μM) is given as 53.0% and the SHP2% degradation (0.1 μM) is 99.0%.
On to `CC(=O)N[C@H](C(=O)N1C[C@H](O)C[C@H]1C(=O)NCc1ccc(-c2scnc2C)cc1O[C@H]1CC[C@H](C(=O)N2CC(Nc3cccc(Sc4cnc(N5CCC(C)(N)CC5)cn4)c3Cl)C2)CC1)C(C)(C)C` [Example 28, (2S,4R)-1-((S)-2-acetamido-3,3-dimethylbutanoyl)-N-(2-(((1R,4S)-4-(3-((3-((5-(4-amino-4-methylpiperidin-1-yl)pyrazin-2-yl)thio)-2-chlorophenyl)amino)azetidine-1-carbonyl)cyclohexyl)oxy)-4-(4-methylthiazol-5-yl)benzyl)-4-hydroxypyrrolidine-2-carboxamide], for which the SHP2% degradation (0.01 μM) came out at 86.9% and the SHP2% degradation (0.1 μM) came to 98.5%.
`Cc1ncsc1-c1ccc(CNC(=O)[C@@H]2C[C@@H](O)CN2C(=O)[C@@H](NC(=O)C2(F)CC2)C(C)(C)C)c(OC2CCN(CC3(O)CCN(c4nccc(Sc5cnc(N6CCC(C)(CN)CC6)cn5)c4Cl)CC3)CC2)c1` [Example 10, (2S,4R)—N-(2-((1-((1-(4-((5-(4-(aminomethyl)-4-methylpiperidin-1-yl)pyrazin-2-yl)thio)-3-chloropyridin-2-yl)-4-hydroxypiperidin-4-yl)methyl)piperidin-4-yl)oxy)-4-(4-methylthiazol-5-yl)benzyl)-1-((S)-2-(1-fluorocyclopropane-1-carboxamido)-3,3-dimethylbutanoyl)-4-hydroxypyrrolidine-2-carboxamide]: the SHP2% degradation is, setting by setting: (0.01 μM) −8.0%; (0.1 μM) 93.9%.
Turning to `CC(=O)N[C@H](C(=O)N1C[C@H](O)C[C@H]1C(=O)NCc1ccc(-c2scnc2C)cc1OC1CCN(C(=O)C2CCN(c3cccc(Sc4cnc(N5CCC(C)(N)CC5)c(CO)n4)c3Cl)CC2)CC1)C(C)(C)C` [Example 84, (2S,4R)-1-((S)-2-acetamido-3,3-dimethylbutanoyl)-N-(2-((1-(1-(3-((5-(4-amino-4-methylpiperidin-1-yl)-6-(hydroxymethyl)pyrazin-2-yl)thio)-2-chlorophenyl)piperidine-4-carbonyl)piperidin-4-yl)oxy)-4-(4-methylthiazol-5-yl)benzyl)-4-hydroxypyrrolidine-2-carboxamide], the SHP2% degradation is recorded as 92.4% (0.01 μM) and 99.9% (0.1 μM).
Consider `CC(=O)N[C@H](C(=O)N1C[C@H](O)C[C@H]1C(=O)N[C@@H](C)c1ccc(-c2scnc2C)cc1O[C@H]1CC[C@H](C(=O)N2CC(Nc3nccc(Sc4cnc(N5CCC(C)(CN)CC5)cn4)c3Cl)C2)CC1)C(C)(C)C` [Example 49, (2S,4R)-1-((S)-2-acetamido-3,3-dimethylbutanoyl)-N—((S)-1-(2-(((1R,4S)-4-(3-((4-((5-(4-(aminomethyl)-4-methylpiperidin-1-yl)pyrazin-2-yl)thio)-3-chloropyridin-2-yl)amino)azetidine-1-carbonyl)cyclohexyl)oxy)-4-(4-methylthiazol-5-yl)phenyl)ethyl)-4-hydroxypyrrolidine-2-carboxamide], for which the SHP2% degradation turned out to be 87.1% (0.01 μM) and 99.4% (0.1 μM).
Take `CC(=O)N[C@H](C(=O)N1C[C@H](O)C[C@H]1C(=O)NCc1ccc(-c2scnc2C)cc1O[C@H]1CC[C@H](C(=O)N2CCC(Nc3nccc(Sc4cnc(N5CCC6(CC5)CO[C@@H](C)[C@H]6N)cn4)c3Cl)CC2)CC1)C(C)(C)C` [Example 43, (2S,4R)-1-((S)-2-acetamido-3,3-dimethylbutanoyl)-N-(2-(((1R,4S)-4-(4-((4-((5-((3S,4S)-4-amino-3-methyl-2-oxa-8-azaspiro[4.5]decan-8-yl)pyrazin-2-yl)thio)-3-chloropyridin-2-yl)amino)piperidine-1-carbonyl)cyclohexyl)oxy)-4-(4-methylthiazol-5-yl)benzyl)-4-hydroxypyrrolidine-2-carboxamide]: the SHP2% degradation runs as follows: (0.01 μM) 94.3%; (0.1 μM) 95.9%.
The matching figures for `CC(=O)N[C@H](C(=O)N1C[C@H](O)C[C@H]1C(=O)NCc1ccc(-c2scnc2C)cc1O[C@H]1CC[C@H](C(=O)N2CC(Nc3cccc(Sc4cnc(N5CCC6(CC5)Cc5ncccc5[C@H]6N)cn4)c3Cl)C2)CC1)C(C)(C)C` [Example 31, (2S,4R)-1-((S)-2-acetamido-3,3-dimethylbutanoyl)-N-(2-(((1R,4S)-4-(3-((3-((5-((S)-5-amino-5,7-dihydrospiro[cyclopenta[b]pyridine-6,4′-piperidin]-1′-yl)pyrazin-2-yl)thio)-2-chlorophenyl)amino)azetidine-1-carbonyl)cyclohexyl)oxy)-4-(4-methylthiazol-5-yl)benzyl)-4-hydroxypyrrolidine-2-carboxamide]: 76.3% and 99.4%.
The matching figures for `Cc1cn([C@H](C(=O)N2C[C@H](O)C[C@H]2C(=O)NCc2ccc(Cl)cc2OC2CCN(C(=O)C3CCN(c4nccc(Sc5cnc(N6CCC7(CC6)CO[C@@H](C)[C@H]7N)c(CO)n5)c4Cl)CC3)CC2)C(C)C)nn1` [Example 112, (2S,4R)—N-(2-((1-(1-(4-((5-((3S,4S)-4-amino-3-methyl-2-oxa-8-azaspiro[4.5]decan-8-yl)-6-(hydroxymethyl)pyrazin-2-yl)thio)-3-chloropyridin-2-yl)piperidine-4-carbonyl)piperidin-4-yl)oxy)-4-chlorobenzyl)-4-hydroxy-1-((S)-3-methyl-2-(4-methyl-1H-1,2,3-triazol-1-yl)butanoyl)pyrrolidine-2-carboxamide]: 93.8% and 99.7%.
